Assay results published in patent publication US7589170B1, “Synthesis of cyclic peptides” (priority 1998, dated 2009).
“Also recorded” adds a separate entry of the source. Like-named read-outs stand apart in the source and are kept apart here.

Experiments:
[1] = stability to hydrolysis in aqueous buffer at pH 9; type: physicochemical
[2] = stability to heating in DMSO; type: physicochemical; settings: 20 h at 70° C. in DMSO
[3] = as originally found for the isolate from Stylotella aurantium; cited from earlier work
[4] = the molecule shown is the open-chain precursor, amide bond, 15-membered ring
[5] = system: sympathetic varicosities of the mouse vas deferens; assay: focal extracellular recording of evoked excitatory junction currents (EJC, measure of transmitter release); type: cell-based
Description: Each filled circle represents an EJC recorded during 100 minutes. Failure to record an EJC is indicated by filled circles on zero of the y-axis. The lower horizontal line indicates when the mixture of cyclic tetrapeptides (1 μM) was applied to the tissue bathing solution and the upper horizontal line when naloxone (1 μM) was added to the tissue bathing solution. […] Cyclo [Tyr-Arg-Phe-Gly] is SEQ ID NO:42.
Each bar is the average of at least 60 recordings, and the vertical lines show the standard deviation of the mean. […] Cyclo [Tyr-Arg-Phe-Gly] is SEQ ID NO:42.
Demorphin is a opioid heptapeptide isolated from the skin of South American frogs, and has the following sequence; {H-Tyr-D-Ala-Phe-Gly-Tyr-Pro-Ser-NH2; SEQ ID NO:71). The tetrapeptide analogues (H-Tyr-D-Ala-Phe-Gly-NH-Y; SEQ ID NO:29) are potent analgesics when administered by intracerebroventricular injection. In Example 3 we synthesised the cyclic tetrapeptides cyclo[Tyr-Arg-Phe-Gly] (SEQ ID NO:42) and cyclo[Tyr-Arg-D-Phe-Gly] (SEQ ID NO:42) designated WP 152 using our combination strategies.

[6] = amide bond, 16-membered ring, HATU/DIEA, DMF, resin, with chain assembly
[7] = amide bond, DIEA, DMF, resin, with chain assembly
[8] = amide bond, 21-membered ring, BOP/2,6-lutidine, resin, -10.0 °C, with chain assembly
[9] = from H-(Hnb)Tyr-Arg-(Hnb)Phe-Ala-OH, amide bond, 12-membered ring

For Cyclo-[Phe-Lys-Trp-Gly-β-Ala], the ring closure, yield after HPLC [6] was 15%.

Work on CC(C)C[C@@H]1NC(=O)[C@H](Cc2ccccc2)NC(=O)[C@H](C)N(Cc2c(O)cccc2[N+](=O)[O-])C(=O)[C@H](C)NC(=O)[C@@H]2CCCN2C1=O [Cyclo-[N-(6-nitro-2-hydroxybenzyl)-Ala-Phe-Leu-Pro-Ala]] yielded a ring closure, yield after HPLC (from H-(6-nitro-2-hydroxybenzyl)Ala-Phe-Leu-Pro-Ala-OH, amide bond, 15-membered ring, BOP/DIEA, DMF, 1.0 mM, 25.0 °C) of 39%.

Compound cyclo-[D-G-Amb-R-G] has a ring closure, yield after HPLC (amide bond, DIPEA, DMF, resin, with chain assembly) of 49%.

CN1CC(=O)NCC(=O)NCC(=O)N(C)CC1=O [H-Gly-MeGly-MeGly-Gly-OH] showed a ring closure, yield after HPLC (from H-Gly-MeGly-MeGly-Gly-OH, amide bond, 12-membered ring) of 13%.

With “cyclo-[(Hnb)Tyr-Arg-(Hnb)Phe-(D)Ala] [Product A]” the stability to hydrolysis [1] was “Stable to hydrolysis” and the stability to heat [2] was “Unstable to heat”.

Compound CC[C@H](C)[C@@H]1NC(=O)[C@H](C)NC(=O)[C@H](CC(C)C)NC(=O)[C@H](CO)NC(=O)[C@H](CC(N)=O)NC(=O)[C@H](Cc2ccccc2)NC(=O)[C@@H]2CCCN2C1=O [Cyclo-(Pro-Phe-Asn-Ser-Leu-Ala-Ile)] has a ring closure, yield after HPLC (from H-Asn-Ser-Leu-Ala-Ile-Pro-Phe-OH, amide bond, 21-membered ring, BOP/DIPEA, DMF, 1.0 mM, -10.0 °C) of 48%.

Work on C[C@H]1C(=O)N[C@@H](Cc2ccc(O)cc2)C(=O)N(Cc2c(O)cccc2[N+](=O)[O-])[C@@H](CCCNC(=N)N)C(=O)N[C@@H](Cc2ccccc2)C(=O)N1Cc1c(O)cccc1[N+](=O)[O-] [H-(Hnb)Ala-Tyr-(Hnb)Arg-Phe-OH] yielded a ring closure, yield after HPLC (from H-(Hnb)Ala-Tyr-(Hnb)Arg-Phe-OH, amide bond, 12-membered ring, BOP/DIEA, DMF, 1.0 mM, 25.0 °C) of 53%.

For O=C1CNC(=O)CNC(=O)CNC(=O)CN1 [H-Gly-Gly-Gly-Gly-OH], the ring closure, yield after HPLC (from H-Gly-Gly-Gly-Gly-OH, amide bond, 12-membered ring, BOP/DIEA, DMF, 1.0 mM) was 1%.

For CCC(C)[C@@H]1NC(=O)[C@H](C)NC(=O)C(CC(C)C)NC(=O)[C@H](CO)NC(=O)C(CC(N)=O)NC(=O)[C@H](Cc2ccccc2)NC(=O)[C@@H]2CCCN2C1=O (stereo in doubt) [stylostatin, Cyclo-(Pro-Phe-Asn-Ser-Leu-Ala-Ile)], the cytotoxicity [3] is listed as “highly cytotoxic”.

CN1CC(=O)NCC(=O)N(C)CC(=O)NCC1=O [H-Gly-MeGly-Gly-MeGly-OH] showed a ring closure, yield after HPLC (from H-Gly-MeGly-Gly-MeGly-OH, amide bond, 12-membered ring, BOP/DIEA, DMF, 1.0 mM) of 2%.

cyclo-[DGAmbRG] gave a ring closure, yield after HPLC [7] of 7.6%.

In the case of Cyclo-(Pro-Phe-Asn-Ser-Leu-Ala-Ile), the ring closure, yield after HPLC [8] is reported as 10%.

Compound cyclo-(Pro-Phe-Asn-Ser-Leu-Ala-Ile) has a ring closure, yield after HPLC [8] of 25%.

C[C@@H]1NC(=O)[C@H](Cc2ccccc2)N(Cc2c(O)cccc2[N+](=O)[O-])C(=O)[C@H](CCCNC(=N)N)NC(=O)[C@H](Cc2ccc(O)cc2)N(Cc2c(O)cccc2[N+](=O)[O-])C1=O [Cyclo-[(Hnb)Tyr-Arg-(Hnb)Phe-Ala]] showed a ring closure, yield after HPLC (from H-(Hnb)Tyr-Arg-(Hnb)Phe-Ala-OH?, amide bond, 12-membered ring) of 60%.

Compound Cyclo-[Leu-Asp-Val-Gly-β-Ala] has a ring closure, yield after HPLC [6] of 18%.

Compound Cyclo-[Arg-Gly-Asp-Gly-β-Ala] has a ring closure, yield after HPLC [6] of 9%.

In the case of CN1CC(=O)NCC(=O)NCC(=O)N(C)CC1=O [H-Gly-Gly-MeGly-MeGly-OH], the ring closure, yield after HPLC (from H-Gly-Gly-MeGly-MeGly-OH, amide bond, 12-membered ring) is reported as 18%.

Compound H-Ala-Phe-Leu-Pro-Ala-O-linker-resin? has a ring closure, conversion ([4]; resin) of 0%.

H-Ala-Phe-Leu-Pro-Ala-OH? gave a ring closure, conversion ([4]; BOP/DIEA) of 0%.

Compound CN1CC(=O)NCC(=O)NCC(=O)NCC1=O [H-Gly-Gly-MeGly-Gly-OH] has a ring closure, yield after HPLC (from H-Gly-Gly-MeGly-Gly-OH, amide bond, 12-membered ring, BOP/DIEA, DMF, 1.0 mM) of 11%.

Work on CN1CC(=O)NCC(=O)NCC(=O)NCC1=O [H-Gly-Gly-Gly-MeGly-OH] yielded a ring closure, yield after HPLC (from H-Gly-Gly-Gly-MeGly-OH, amide bond, 12-membered ring, BOP/DIEA, DMF, 1.0 mM) of 8%.

Work on CN1CC(=O)NCC(=O)N(C)CC(=O)N(C)CC1=O [H-Gly-MeGly-MeGly-MeGly-OH] yielded a ring closure, yield after HPLC (from H-Gly-MeGly-MeGly-MeGly-OH, amide bond, 12-membered ring, BOP/DIEA, DMF, 1.0 mM) of 5%.

Work on cyclo-[DAmbGRG] yielded a ring closure, yield after HPLC [7] of 5%.

For CC[C@H](C)[C@@H]1NC(=O)[C@H](C)NC(=O)[C@H](CC(C)C)NC(=O)[C@H](CO)NC(=O)[C@H](CC(N)=O)NC(=O)[C@H](Cc2ccccc2)NC(=O)[C@@H]2CCCN2C1=O [cyclo-(Pro-Phe-Asn-Ser-Leu-Ala-Ile)], the ring closure, yield after HPLC (from H-Pro-Phe-Asn-Ser-Leu-Ala-Ile-OH, amide bond, 21-membered ring, BOP/DIPEA, DMF, -10.0 °C) was 67%.

In the case of CN1CC(=O)NCC(=O)NCC(=O)NCC1=O [H-Gly-MeGly-Gly-Gly-OH], the ring closure, yield after HPLC (from H-Gly-MeGly-Gly-Gly-OH, amide bond, 12-membered ring, BOP/DIEA, DMF, 1.0 mM) is reported as 1%.

COc1ccc(CN2CC(=O)NCC(=O)NCC(=O)N(Cc3ccc(OC)cc3O)CC2=O)c(O)c1 [H-Gly-(HMB)Gly-(HMB)Gly-Gly-OH] showed a ring closure, yield after HPLC (from H-Gly-(HMB)Gly-(HMB)Gly-Gly-OH, amide bond, 12-membered ring, BOP/DIEA, DMF, 1.0 mM) of 16%.

In the case of CC(C)C[C@@H]1NC(=O)[C@H](Cc2ccccc2)NC(=O)[C@H](C)N(Cc2cc([N+](=O)[O-])ccc2O)C(=O)[C@H](C)NC(=O)[C@@H]2CCCN2C1=O [Cyclo-[N-(5-nitro-2-hydroxybenzyl)-Ala-Phe-Leu-Pro-Ala]], the ring closure, yield after HPLC (from H-(5-nitro-2-hydroxybenzyl)Ala-Phe-Leu-Pro-Ala-OH, amide bond, 15-membered ring, BOP/DIEA, DMF, 1.0 mM, 25.0 °C) is reported as 51%.

In the case of C=CCN1CC[C@]23c4c5ccc(O)c4O[C@H]2C(=O)CC[C@@]3(O)[C@H]1C5 [naloxone, reference compound], the “effect of naloxone on the EJC reduction caused by the cyclic tetrapeptide mixture” value ([5]; naloxone 1 μM added to the tissue bathing solution with the tetrapeptide mixture (1 μM)) is reported as “inhibits this effect; also recorded: reversed”.

In the case of N=C(N)NCCC[C@H]1C(=O)N[C@@H](Cc2ccccc2)C(=O)N(Cc2c(O)cccc2[N+](=O)[O-])CC(=O)N[C@@H](Cc2ccc(O)cc2)C(=O)N1Cc1c(O)cccc1[N+](=O)[O-] [H-(Hnb)Gly-Tyr-(Hnb)Arg-Phe-OH?], the ring closure, yield after HPLC (from H-(Hnb)Gly-Tyr-(Hnb)Arg-Phe-OH?, amide bond, 12-membered ring, BOP/DIEA, DMF, 1.18 mM) is reported as 68%.

In the case of C[C@@H]1NC(=O)[C@H](Cc2ccccc2)N(Cc2c(O)cccc2[N+](=O)[O-])C(=O)[C@H](CCCNC(=N)N)NC(=O)[C@H](Cc2ccc(O)cc2)N(Cc2c(O)cccc2[N+](=O)[O-])C1=O [cyclo-[(Hnb)Tyr-Arg-(Hnb)Phe-(D)Ala]], the ring closure, yield after HPLC [9] is reported as 18%.

With “cyclo-[(Hnb)Tyr-Arg-(Hnb)Phe-Ala] [Product B]” the stability to hydrolysis [1] was “Stable” and the stability to heat [2] was “Stable to heat”.

C[C@@H]1NC(=O)[C@H](Cc2ccccc2)N(Cc2c(O)cccc2[N+](=O)[O-])C(=O)[C@H](CCCNC(=N)N)NC(=O)[C@H](Cc2ccc(O)cc2)N(Cc2c(O)cccc2[N+](=O)[O-])C1=O [cyclo-[(Hnb)Tyr-Arg-(Hnb)Phe-Ala]] gave a ring closure, yield after HPLC [9] of 13%.

N=C(N)NCCC[C@H]1C(=O)N[C@@H](Cc2ccccc2)C(=O)NCC(=O)N(Cc2c(O)cccc2[N+](=O)[O-])[C@@H](Cc2ccc(O)cc2)C(=O)N1Cc1c(O)cccc1[N+](=O)[O-] [Cyclo-[(Hnb)Tyr-(Hnb)Arg-Phe-Gly]] gave a ring closure, yield after HPLC (from H-(Hnb)Tyr-(Hnb)Arg-Phe-Gly-OH?, amide bond, 12-membered ring, BOP/DIEA, DMF, 1.1 mM, 25.0 °C) of 61%.

In the case of Cyclo-(SCH2CH2-Gly-Arg-Pro-Phe-Gly), the ring closure, yield after HPLC (other bond, 18-membered ring, BOP/DIEA, DMF, 1.0 mM, -10.0 °C) is reported as 31%.

Work on CC(C)C[C@@H]1NC(=O)[C@H](Cc2ccccc2)N(Cc2c(O)cccc2[N+](=O)[O-])C(=O)[C@H](C)NC(=O)[C@H](C)NC(=O)[C@@H]2CCCN2C1=O [Cyclo-[N-(6-nitro-2-hydroxybenzyl)-Phe-Leu-Pro-Ala-Ala]] yielded a ring closure, yield after HPLC (from H-(6-nitro-2-hydroxybenzyl)Phe-Leu-Pro-Ala-Ala-OH, amide bond, 15-membered ring, BOP/DIEA, DMF, 1.0 mM, 25.0 °C) of 44%.

In the case of “cyclo[Tyr-Arg-Phe-Gly] (SEQ ID NO:42) and cyclo[Tyr-Arg-D-Phe-Gly] (SEQ ID NO:42) [WP 152]”, the “EJC amplitude and frequency” value ([5]; 1 μM in tissue bathing solution, EJCs recorded during 100 minutes (FIG. 10)) is reported as “greatly reduces the EJC amplitude and frequency”, the “average excitatory junction current (EJC) amplitude and frequency” value ([5]; 1 μM, following 20 minutes of exposure, each bar average of at least 60 recordings (FIG. 11)) is reported as “highly significant decrease” and the transmitter release ([5]; FIGS. 10 and 11, mixture of compounds) is reported as “greatly reduces transmitter release”. For the same compound, the “opiate agonism inferred from reversal by naloxone” value ([5]; one or both of the compounds, strongly suggested, not measured directly) was “potent μ-opiate agonists”.

In the case of Cyclo-[DGCatRG], the ring closure, yield after HPLC (amide bond, 16-membered ring, DIEA, DMF, resin, with chain assembly) is reported as 11%.
